Test results reported in ChEMBL document CHEMBL1201862, “PubChem BioAssay data set” (2004).
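Step 1: Grow cells in 96-well plates. Step 2: Expose to compound for 48 hours at 5 concentrations. Step 3: Interpolate endpoints linearly; if unreached, use highest concentration. GI50 is the concentration that inhibits growth by half.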 Calls of active or inactive are those of the source. Rule as the data show it: active = GI50 up to about 1.1 µM and inactive = higher.

What was measured:
Test in all cases: inhibition of tumour cell growth, NCI panel, 48 h
[1] = tested on: A498
[2] = tested on: A549
[3] = tested on: BT-549
[4] = tested on: DU-145
[5] = tested on: HOP-62
[6] = tested on: IGROV-1
[7] = tested on: LOX IMVI
[8] = tested on: M14
[9] = tested on: MCF7
[10] = tested on: MDA-MB-231
[11] = tested on: NCI-H522
[12] = tested on: OVCAR-5
[13] = tested on: PC-3
[14] = tested on: SK-OV-3
[15] = tested on: SNB-75
[16] = tested on: T47D
[17] = tested on: TK-10
[18] = tested on: U-251
[19] = tested on: UACC-62
[20] = tested on: RXF 393

Measured: GI50

COc1ccc(S(=O)(=O)N2C(=O)CCC2C(=O)NN)cc1 (stereo not drawn)
inactive: [1] > 100 µM | [2] > 100 µM | [3] > 100 µM | [4] > 100 µM | [5] > 100 µM | [6] > 100 µM | [7] > 100 µM | [8] > 100 µM | [9] > 100 µM | [10] > 100 µM | [11] 25.5 µM | [12] > 100 µM | [13] > 100 µM | [14] > 100 µM | [15] > 100 µM | [16] > 100 µM | [17] > 100 µM | [18] > 100 µM | [19] > 100 µM

CC1=C(C(=O)OCc2ccncc2)C(C2=C(C)SCCS2)C(C(=O)OCc2ccncc2)=C(C)N1
inactive: [2] 33.3 µM | [3] 20.4 µM | [4] 29.4 µM | [5] 21.7 µM | [6] 62.5 µM | [7] 18.8 µM | [8] 28.7 µM | [9] 20.8 µM | [10] 26.9 µM | [11] 22.8 µM | [12] 40.7 µM | [13] 20.9 µM | [20] 12 µM | [14] 26.6 µM | [15] 15.8 µM | [16] 16.1 µM | [17] 40.8 µM | [18] 16.7 µM | [19] 16.3 µM

c1ccc(CSCCc2ccncc2)cc1
inactive: [1] > 100 µM | [2] > 100 µM | [3] > 100 µM | [4] > 100 µM | [5] > 100 µM | [6] > 100 µM | [7] > 100 µM | [8] > 100 µM | [9] > 100 µM | [10] 15.8 µM | [11] 69 µM | [12] > 100 µM | [13] > 100 µM | [20] > 100 µM | [14] > 100 µM | [16] 90.6 µM | [17] > 100 µM | [18] > 100 µM | [19] > 100 µM

CN(C)C(=O)C(NCCO)c1ccccc1 (stereo not drawn)
inactive: [1] > 100 µM | [2] > 100 µM | [3] > 100 µM | [4] > 100 µM | [5] > 100 µM | [6] 72.6 µM | [7] > 100 µM | [8] > 100 µM | [9] > 100 µM | [10] > 100 µM | [11] > 100 µM | [12] > 100 µM | [13] 89.1 µM | [20] > 100 µM | [14] > 100 µM | [15] > 100 µM | [16] 53.3 µM | [17] > 100 µM | [18] 90.6 µM | [19] 61.2 µM

CCOC(=O)c1csc(C(CSCc2ccc(OC)cc2)N2C(=O)c3ccccc3C2=O)n1 (stereo not drawn)
inactive: [1] > 100 µM | [2] > 100 µM | [3] > 100 µM | [4] > 100 µM | [5] > 100 µM | [6] > 100 µM | [7] 37.6 µM | [8] > 100 µM | [9] 73.5 µM | [10] > 100 µM | [11] 23.5 µM | [12] > 100 µM | [13] > 100 µM | [20] > 100 µM | [14] > 100 µM | [16] 69.2 µM | [17] > 100 µM | [18] > 100 µM | [19] 63.5 µM

O=C(Nc1nnc(-c2c(Cl)c(Cl)c(Cl)c(Cl)c2-c2nc3cc(C(=O)c4ccccc4)ccc3[nH]2)o1)c1ccc(Cl)cc1
inactive: [1] 18.2 µM | [2] 25.6 µM | [3] 41.9 µM | [4] 58.6 µM | [5] 12.8 µM | [6] 29.2 µM | [7] 34.8 µM | [8] 35.5 µM | [9] 20.2 µM | [10] 48.6 µM | [12] > 100 µM | [13] 25.1 µM | [20] 26.5 µM | [14] 40.2 µM | [15] 47.8 µM | [16] 30.5 µM | [17] 51.9 µM | [18] 32 µM

CCCCCCCCCCCCO[PH](=O)OCCCCCCCCCCCC
inactive: [1] > 100 µM | [2] > 100 µM | [3] > 100 µM | [4] > 100 µM | [5] > 100 µM | [6] > 100 µM | [8] > 100 µM | [9] > 100 µM | [10] > 100 µM | [11] > 100 µM | [12] > 100 µM | [13] > 100 µM | [20] > 100 µM | [14] > 100 µM | [15] > 100 µM | [16] > 100 µM | [17] 34.4 µM | [18] > 100 µM | [19] > 100 µM
